Test results taken from the NIST ThermoML archive (doi:10.1021/je100850z).
“And” between values parts separate entries of the source, which are not always exact repeats. Identical values can stand only once.

What was measured:
[1] = Molar enthalpy of transition or fusion; conditions: Crystal; DSC
[2] = Crystal; for vapor or sublimation pressure: Calculated from knudsen effusion weight loss; for Normal melting temperature: DTA

O=c1c2ccccc2oc2ccccc12 [9H-xanthen-9-one]
Conditions	Molar enthalpy of transition or fusion [kJ/mol]	Normal melting temperature [°C]
[1]	26.6	–
[2]	–	175.2

[2]
Conditions	vapor or sublimation pressure
342.22 K	0.00013 kPa and 0.000132 kPa and 0.000129 kPa
344.15 K	0.000163 kPa and 0.00016 kPa and 0.000157 kPa
346.26 K	0.000197 kPa and 0.000201 kPa and 0.000196 kPa
348.26 K	0.000238 kPa and 0.00024 kPa and 0.000245 kPa
350.26 K	0.000301 kPa and 0.000303 kPa and 0.000295 kPa
354.2 K	0.000451 kPa and 0.000452 kPa and 0.000434 kPa
356.21 K	0.000553 kPa and 0.000546 kPa and 0.000529 kPa
358.26 K	0.000674 kPa and 0.000667 kPa and 0.000658 kPa
360.15 K	0.000814 kPa and 0.000799 kPa and 0.000781 kPa
362.22 K	0.000989 kPa and 0.000954 kPa

O=c1c2ccccc2sc2ccccc12 [thioxanthone]
Conditions	Molar enthalpy of transition or fusion [kJ/mol]	Normal melting temperature [°C]
[1]	28.4	–
[2]	–	213.5

[2]
Conditions	vapor or sublimation pressure
369.12 K	0.000187 kPa and 0.000186 kPa and 0.000178 kPa
371.2 K	0.000232 kPa and 0.000226 kPa and 0.000222 kPa
373.26 K	0.000284 kPa and 0.000274 kPa and 0.00027 kPa
375.12 K	0.000335 kPa and 0.00032 kPa and 0.000321 kPa
377.11 K	0.000413 kPa and 0.000405 kPa and 0.000383 kPa
379.2 K	0.000496 kPa and 0.000495 kPa and 0.00048 kPa
381.27 K	0.000611 kPa and 0.000592 kPa and 0.000579 kPa
383.12 K	0.000711 kPa and 0.000701 kPa and 0.000664 kPa
385.27 K	0.000863 kPa and 0.00082 kPa and 0.00081 kPa
387.2 K	0.001018 kPa and 0.001001 kPa and 0.000962 kPa

O=C1c2ccccc2Cc2ccccc21 [9(10H)-anthracenone]
Conditions	Molar enthalpy of transition or fusion [kJ/mol]	Normal melting temperature [°C]
[1]	22.4	–
[2]	–	156.4

[2]
Conditions	vapor or sublimation pressure
346.15 K	0.000131 kPa and 0.000128 kPa
348.14 K	0.000162 kPa and 0.000156 kPa
351.13 K	0.000223 kPa and 0.000217 kPa and 0.000221 kPa
354.18 K	0.000299 kPa and 0.00029 kPa and 0.000307 kPa
355.68 K	0.000359 kPa and 0.000354 kPa and 0.000348 kPa
357.19 K	0.00041 kPa and 0.000405 kPa and 0.000396 kPa
360.15 K	0.000558 kPa and 0.000553 kPa and 0.000533 kPa
363.14 K	0.000744 kPa and 0.000727 kPa and 0.0007 kPa
365.14 K	0.000895 kPa and 0.000879 kPa and 0.00084 kPa

O=C1c2ccccc2C(=O)c2ccccc21 [9,10(9H,10H)-anthracenedione]
Conditions	Molar enthalpy of transition or fusion [kJ/mol]	Normal melting temperature [°C]
[1]	36.3	–
[2]	–	283.6

[2]
Conditions	vapor or sublimation pressure
377.06 K	0.000173 kPa and 0.000164 kPa
379.08 K	0.00021 kPa and 0.0002 kPa
381.26 K	0.00025 kPa and 0.000246 kPa
383.26 K	0.000299 kPa and 0.000302 kPa
385.26 K	0.000359 kPa and 0.000352 kPa
391.26 K	0.000618 kPa
393.08 K	0.000743 kPa and 0.000716 kPa
395.03 K	0.000886 kPa

c1ccc2c(c1)Sc1ccccc1S2 [thianthrene]
[2]
Conditions	vapor or sublimation pressure
344.27 K	0.000161 kPa and 0.000163 kPa
346.12 K	0.0002 kPa and 0.000198 kPa and 0.000197 kPa
348.1 K	0.000246 kPa and 0.000243 kPa and 0.000239 kPa
350.26 K	0.000301 kPa and 0.000299 kPa
352.11 K	0.00037 kPa and 0.000368 kPa and 0.000362 kPa
354.1 K	0.000447 kPa and 0.000446 kPa and 0.000439 kPa
356.26 K	0.000549 kPa and 0.00056 kPa and 0.000555 kPa
358.1 K	0.00068 kPa and 0.000687 kPa and 0.000669 kPa
362.05 K	0.000992 kPa and 0.000995 kPa and 0.000973 kPa
364.06 K	0.001197 kPa and 0.001196 kPa and 0.00117 kPa
